System: various cancers
Assay: Anti-proliferative effect of combinations, in vitro and in vivo
Source text: These cancers include, but are not limited to, lung cancer, small cell lung cancer, non-small cell lung cancer, colon cancer, breast cancer, pancreatic cancer, prostate cancer, renal cancer, cervical cancer, brain cancer, gastric/stomach cancer, uterine cancer, intestinal cancer, hepatic cancer, chronic myelogenous leukemia, melanoma, ovarian cancer, translocation-associated renal cell carcinoma (RCC), alveolar soft part sarcoma (ASPS), clear cell sarcoma (CCS), and hepatocellular carcinoma. The anti-proliferative effects of these combinational treatments are increased/enhanced in cell proliferative disorders and cancers in which the effected cells constitutively express or over-express c-Met. In addition, synergistic anti-proliferative effects are shown by (−)-trans-3-(5,6-dihydro-4H-pyrrolo[3,2,1-ij]quinolin-1-yl)-4-(1H-indol-3-yl) pyrrolidine-2,5-dione in combination with sorafenib in breast cancer, cervical cancer, lung cancer, small cell lung cancer, non-small cell lung cancer, melanoma, colon cancer, pancreatic cancer, renal cancer and gastric/stomach cancer; by (−)-trans-3-(5,6-dihydro-4H-pyrrolo[3,2,1-ij]quinolin-1-yl)-4-(1H-indol-3-yl)pyrrolidine-2,5-dione in combination with sunitinib in gastric/stomach cancer; by (−)-trans-3-(5,6-dihydro-4H-pyrrolo[3,2,1-ij]quinolin-1-yl)-4-(1H-indol-3-yl)pyrrolidine-2,5-dione in combination with erlotinib in lung cancer, small cell lung cancer, non-small cell lung cancer and colon cancer; and by (−)-trans-3-(5,6-dihydro-4H-pyrrolo[3,2,1-ij]quinolin-1-yl)-4-(1H-indol-3-yl)pyrrolidine-2,5-dione in combination with cisplatin in pancreatic cancer.

In the case of O=C1NC(=O)[C@@H](c2cn3c4c(cccc24)CCC3)[C@@H]1c1c[nH]c2ccccc12 [Agent A, (−)-trans-3-(5,6-dihydro-4H-pyrrolo[3,2,1-ij]quinolin-1-yl)-4-(1H-indol-3-yl)pyrrolidine-2,5-dione], the “anti-proliferative effects in combination with sorafenib” value (breast, cervical, lung, small cell lung, non-small cell lung cancer, melanoma, colon, pancreatic, renal and gastric/stomach cancer) is reported as “synergistic”, the “anti-proliferative effects in combination with sunitinib” value (gastric/stomach cancer) is reported as “synergistic” and the “anti-proliferative effect in combination” value (in combination with sorafenib, sunitinib, erlotinib, gefitinib, cisplatin, carboplatin or capecitabine, various cancers, in vitro and in vivo) is reported as “at least an additive”. The “anti-proliferative effects in combination with erlotinib” value (lung, small cell lung, non-small cell lung and colon cancer) was “synergistic” and the “anti-proliferative effects in combination with cisplatin” value (pancreatic cancer) was “synergistic”.

— patent publication US20110301194A1, “Method for Determining Treatment Efficacy” (ArQule, Inc., priority 2010, published 2011)
